{
  "source": "patent US11998602B2",
  "about": "“Methods for promoting myelination and for treating demyelinating diseases” (The Scripps Research Institute, priority 2018, dated 2024)",
  "key": {"[1]": {"test_system": "Rat primary optic nerve OPCs", "experiment": "In vitro OPC differentiation assay, MBP expression by Western blot", "assay_type": "cell-based", "conditions": "for Effect of supplementation on drug-induced OPC differentiation: added to drug-induced differentiation conditions; for Observed maximal in vitro efficacy of OPC differentiation compared to T3: drug alone", "experimental": "Rat primary optic nerve OPCs were isolated by panning (>99% A2B5^+) and cultured in poly-D-lysine (10 μg/ml)-coated TC dishes in OPC culture media (Neurobasal Media, Invitrogen) supplemented with B27-without vitamin A (Invitrogen), 1× non-essential amino acids, 1× Glutamax, 1× anti-anti, β-mercaptoethanol and PDGF-AA (50 ng/ml; Peprotech) at 37° C. with 5% CO2. The culture medium was replaced every 48 h and cells were collected before the confluency reached 60% to maintain a naive state. For differentiation, OPCs were plated at 1 million cells in one 10 cm petri-dish filled with differentiation media, which is identical to the culture media, but with PDGF-AA at 2 ng/ml. T3 and DMSO were used as the positive control and negative control, respectively. Five replicates of cells were collected at different times (0, 3, and 6 days) for metabolomics studies.\nWestern blot analysis. OPCs were plated in basal differentiation medium at 1.7×10^5 cells/well and treated for 6 days with benztropine (0.5 μM), miconazole (2 μM) with and without the tested endogenous metabolites, T3 (1 μM) or DMSO. After washing with PBS, cells were collected in ice cold RIPA buffer containing protease and phosphatase inhibitors. Following incubation on ice for >20 min and sonication, lysed cells were centrifuged (16,000 g, 15 min at 4° C.). Total protein was quantified using a BCA analysis and 25 μg of protein from each sample was denatured by boiling with Bolt LDS Sample Buffer (4×) and Sample Reducing Agent (10×). Proteins were electrophoresed using Bolt 4-12% Bis-Tris gels (Life Technologies) and transferred to a PVDF membrane (Bio-Rad). The membrane was blocked with Odyssey PBS Blocking Buffer (LI-COR) and incubated overnight at 4° C. with anti-MBP (mouse, 1:2000) and anti-actin (mouse, 1:5000). Blots were incubated with […] secondary donkey anti-mouse antibody (LI-COR, 1:7500) and imaged using Odyssey CLx and Image Studio (LI-COR)."}, "[2]": {"test_system": "Rat primary optic nerve OPCs", "experiment": "High content imaging assay of OPC differentiation (MBP, A2B5, DAPI cell counts)", "assay_type": "cell-based", "experimental": "Rat primary optic nerve OPCs were isolated by panning (>99% A2B5^+) and cultured in poly-D-lysine (10 μg/ml)-coated TC dishes in OPC culture media (Neurobasal Media, Invitrogen) supplemented with B27-without vitamin A (Invitrogen), 1× non-essential amino acids, 1× Glutamax, 1× anti-anti, β-mercaptoethanol and PDGF-AA (50 ng/ml; Peprotech) at 37° C. with 5% CO2. The culture medium was replaced every 48 h and cells were collected before the confluency reached 60% to maintain a naive state. For differentiation, OPCs were plated at 1 million cells in one 10 cm petri-dish filled with differentiation media, which is identical to the culture media, but with PDGF-AA at 2 ng/ml. T3 and DMSO were used as the positive control and negative control, respectively. Five replicates of cells were collected at different times (0, 3, and 6 days) for metabolomics studies. High content imaging. For dose-response co-treatment experiments, black, clear-bottom 384-well plates (Greiner) were coated with poly-D-lysine (10 μg ml^−1 in PBS). miconazole and benztropine were added at 8 doses in differentiation media; 3-fold dilutions down from 10 μM. taurine was then added at 8 concentrations; 3-fold dilutions down from 20 mM. This 384-well format was also utilized for experiments combining benztropine (0.5 μM), miconazole (2 μM) or T3 (1 μM) with propargylglycine (0.1, 3, 10, 30 μM), reduced glutathione (1, 10, 30, 100 μM) or ascorbic acid ([…]). OPCs were then seeded at a density of 1,000 cells per well, and the plates were incubated at 37° C. with 5% CO2 for 6 days. For time course experiments, cells were seeded at a density of 5,000 cells per well in poly-D-lysine-coated 96-well plates. Cells were treated with DMSO (0.1%), benztropine (0.5 μM), miconazole (2 μM) or T3 (1 μM) on day 0, and taurine (20 mM) was added in combination at 0, 1 or 3 days post-drug treatment. The plates were incubated at 37° C. with 5% CO2 for 6 days. On day 6, cells were then fixed for 20 min with 4% formaldehyde solution and stained with mouse anti-Myelin Basic Protein (MBP) antibody (MAB382, Millipore) or anti-A2B5 antibody (MAB312, Millipore) in 3% BSA, 0.3% Triton X-100 with overnight incubation at 4° C. The cells were washed and incubated with secondary antibody (goat anti-mouse Alexa Fluor488) and DAPI (Invitrogen) for 1 h at room temperature. The cells were washed and plates were sealed and imaged using an Opera confocal imaging reader (Perkin Elmer) or a Cellomics Cell Insight imaging reader (Thermo). An air ×10 lens was used to capture 9 images per well at both wavelengths (488 and 365 nm), with each image representing a different unique locations field in a single well. For image analysis, DAPI-stained nuclei and MBP-positive or A2B5-positive cell bodies were detected using an algorithm that selects for positive cell bodies and nuclei within a range of fluorescent emission values and sizes as determined by fitting parameters to positive (T3, 1 μM) and negative controls (DMSO, 0.1%). The numbers of DAPI-positive objects were enumerated in experiments where cell counts were required. Numerical results from the analyzed images were later exported for analysis using Excel (Microsoft) and/or Genedata software."}, "[3]": {"test_system": "primary mouse cortical neurons co-cultured with OPCs", "experiment": "In vitro OL maturation assay, MBP-colocalization with co-cultured axons", "assay_type": "cell-based, rat", "conditions": "0.5 μM benztropine, 1.0 μM miconazole or 2 mM taurine alone, 14 days", "experimental": "In vitro OL maturation assay. Cortical and hippocampal tissue was dissected from C57BL/6 mice at embryonic day 14 and dissociated in 0.5% Trypsin with 100 U/mL DNase I diluted in HBSS (+/+) for 10 min at 37° C. Reaction was stopped by supplementing to a final concentration of 10% v/v FBS, 100 μg/mL Soybean Trypsin Inhibitor and 10 U/mL DNase I. Cells were resuspended in plating media consisting of equal volumes of FCS, HBSS (+/+), High-Glucose DMEM with L-glutamine, and F-12 with L-glutamine, then plated onto acid pre-washed German glass coverslips coated with 50 μg/mL Poly-D-Lysine and 20 μg/mL Laminin at a density of 50,000 cells/cm^2. Cells were allowed to attach for 2 hrs and then coverslips were rinsed with PBS before being transferred to a 24-well plate containing 0.5 mL growth media consisting of: Neurobasal medium, B27 supplement (Gibco), 0.5× Glutamax (Thermo), 5 μg/mL gentamycin and 5 μM glutamic acid. Half of the cell media was replaced after 3 DIV with supplemental growth media not containing glutamic acid^47. After 5 DIV, rat-derived cortical OPCs were added to the neuronal culture at a density of 5,000 cells/cm^2. Co-culture media used to resuspend and plate OPCs consisting of a 1:3 mixture of neuronal growth supplement (as above) and oligodendrocyte differentiation media, containing DMEM/F-12 (with L-glutamine), insulin-free N2 supplement, 1× Glutamax, 1×MEM non-essential amino acids, 1× β-mercaptoethanol, 2 ng/mL PDGF and 5 μg/mL gentamycin. All drugs and taurine co-treatment were added once to culture upon plating of OPCs at the following concentrations: 0.5 μM benztropine, 1.0 μM miconazole, each with or without 2 mM taurine. Cultures were maintained by replacing half of the media every three days, maintaining an equivalent concentration of taurine throughout in appropriate wells. […] Co-localization was quantified within regions of interest delineated as the periphery of individual oligodendrocytes. The co-localization index (adapted from a previously described method^48) was calculated as total proportion of co-localized 3D surface area between Tuj1 (neuron) and oligodendrocyte (MBP) over total Tuj1 (neuronal process) area enclosed within each oligodendrocyte process tree as the selected region of interest (ROI, see FIG. 3B″). Mean colocalization values for each condition were normalized to the DMSO condition mean analyzed statistically using Prism software (GraphPad, v7) for two-way ANOVA comparisons (Drug Treatment×Taurine Supplement) with Tukey post-tests for statistical significance. […]"}, "OPCs": {"test_system": "OPCs", "experiment": "Mitochondrial respiration assay (oxygen consumption rate, XFe96 Seahorse)", "assay_type": "cell-based, rat", "conditions": "miconazole treatment alone", "experimental": "Mitochondrial respiration assay. Cellular oxygen consumption rate (OCR) was measured using an XFe96 extracellular flux analyzer (Seahorse Biosciences). OPCs were seeded at 40,000 cells/well in PLP-coated XFe96 plates and cultured for 6 days with taurine (2 and 20 mM) alone, or together with miconazole and benztropine. Cells were then incubated in assay medium (DMEM with 20 mM glucose, 5 mM pyruvate and 5 mM sodium bicarbonate, pH˜7.4) for at least 30 min prior to the assay. Media to deliver a final assay well concentration corresponding to of 1 μM oligomycin, 2 μM carbonyl cyanide 4-(trifluoromethoxy) phenylhydrazone (FCCP) and 2 μM rotenone+2 μM antimycin A were pre-loaded into the compound delivery ports of the system. The assay starts with the recording of the basal OCR, followed by recording of the OCR in response to different compounds that constitute the Mitochondria Stress Test (Seahorse Biosciences, Agilent). Once the basal OCR was measured, the compounds were added sequentially and the effects on OCR measured 3 times every 5 min. Oligomycin blocks ATP synthase; FCCP dissipates the inner membrane potential enabling maximum electron flux through the electron transport chain (ETC); rotenone+antimycin A inhibit complexes I and III, respectively, thereby blocking the entry of electrons in the ETC and shutting down mitochondrial activity."}},
  "data": [
    {"compound": "CN(CC(=O)O)C(=N)NP(=O)(O)O", "note": "[PCr, phosphocreatine]", "values": [
      {"measurement": "Effect of supplementation on drug-induced OPC differentiation", "setting": "[1]", "result": "some additive effects"}
    ]},
    {"compound": "C#CCC(N)C(=O)O", "note": "(stereo not shown) [PPG, propargylglycine]", "values": [
      {"measurement": "Impact on differentiation efficiency under basal vehicle treated conditions", "setting": "[2]; PPG", "result": "virtually no impact"},
      {"measurement": "Observed efficacy of drug-induced differentiation", "setting": "[2]; PPG 10 μM added at day 0 or day 3, all drug-induced conditions", "result": "significantly enhance"},
      {"measurement": "Overall cell number with T3 treatment", "setting": "[2]; PPG 10 μM, T3 1 μM", "result": "enhance"},
      {"measurement": "Impact on overall survival in OPC cultures", "setting": "[2]; PPG, DMSO, benztropine (0.5 μM) or miconazole (2 μM)", "result": "not found to impact"}
    ]},
    {"compound": "CN1[C@@H]2CC[C@H]1C[C@@H](OC(c1ccccc1)c1ccccc1)C2", "note": "[benztropine, reference compound]", "values": [
      {"measurement": "MBP-colocalization with axons, treatment alone vs. DMSO (Tukey post hoc)", "setting": "[3]", "result": "significant"},
      {"measurement": "Observed maximal in vitro efficacy of OPC differentiation compared to T3", "setting": "[1]", "result": "suboptimal"}
    ]},
    {"compound": "CN(CC(=O)O)C(=N)N", "note": "[creatine]", "values": [
      {"measurement": "Effect of supplementation on drug-induced OPC differentiation", "setting": "[1]", "result": "some additive effects"}
    ]},
    {"compound": "Clc1ccc(COC(Cn2ccnc2)c2ccc(Cl)cc2Cl)c(Cl)c1", "note": "(stereo not shown) [miconazole, reference compound]", "values": [
      {"measurement": "MBP-colocalization with axons, treatment alone vs. DMSO (Tukey post hoc)", "setting": "[3]", "result": "no significant difference"},
      {"measurement": "Impact on OCR values compared to DMSO or benztropine treatment", "setting": "OPCs", "result": "negative impact"},
      {"measurement": "Observed maximal in vitro efficacy of OPC differentiation compared to T3", "setting": "[1]", "result": "suboptimal"}
    ]},
    {"compound": "reduced glutathione", "values": [
      {"measurement": "Differentiation efficiency (MBP-positive OLs) under basal conditions", "setting": "[2]; 10 μM GSH, DMSO, day 6", "result": "no significant effect"},
      {"measurement": "Observed total nuclei count in T3-induced differentiation", "setting": "[2]; 10 μM GSH, T3 (1 μM), day 6", "result": "significantly enhance"},
      {"measurement": "Overall efficiency of T3-induced differentiation", "setting": "[2]; 10 μM GSH, T3 (1 μM), day 6", "result": "significantly enhance"},
      {"measurement": "Impact on total cell number in benztropine- or miconazole-induced differentiation", "setting": "[2]; reduced glutathione", "result": "not found to be significant"},
      {"measurement": "Overall efficiency of benztropine- or miconazole-induced differentiation", "setting": "[2]; reduced glutathione, lesser extent than following taurine addition", "result": "enhance"}
    ]}
  ]
}
